Source: paper PMC11096368, “Transcriptomic signature, bioactivity and safety of a non-hepatotoxic analgesic generating AM404 in the midbrain PAG region” (Scientific Reports, 2024)

Assays:
hERG current = target: T1, hERG current (Homo sapiens, UniProt Q12809); test: Cardiotoxicity assay (hERG); format: cell-based; settings: human embryonic kidney cells
T1 construct: expressed in transfected cells; host or cells: human embryonic kidney cells
Procedure: The effects of SRP-001 on hERG current amplitude at physiologic temperatures were evaluated over a nominal concentration range of 0.1 μM to […]. A vehicle group (10% DMSO) was included in the study for comparison, and dofetilide (10 nM) was used as a reference substance. The vehicle and positive controls indicated appropriate sensitivity of the test systems. […] Next, the potential acute effects of oral SRP-001 on cardiovascular function in conscious telemetered beagle dogs was done using a Latin Square design; 4 male naïve beagle dogs each received vehicle (10% DMSO: 10% labrasol: 80% PEG400) and three doses (30, 90, and 150 mg/kg) of SRP-001 nanosuspension by oral gavage. […] A single dose was administered on the day of dosing, and a washout period of seven days was allowed between doses. One-min means of hemodynamic parameters, as well as ECG parameters and body temperature, were measured for a period of at least 24 h. One-min tracings of the ECGs were obtained at 15 min prior to dosing and at 30 min, 1, 2, 4, 8, 12, and 24 h post-dose. Qualitative evaluation of the ECGs was done by a board-certified veterinary cardiologist.

[1] = test system: Chinese Hamster ovary cells; test: In vitro mammalian chromosomal aberration assay; format: cell-based; settings: for Doses with cytotoxicity (≥ 45% reduction in cell growth index): non-activated 20-h exposure
Procedure: In the preliminary toxicity assay, the doses tested ranged from 0.0405 to 405 µg/mL (1 mM), which was the limit dose for this assay (Bioreliance, Rockville, MD USA).
The doses selected for evaluation of chromosome aberrations were 150, 300, and 405 µg/mL for the non-activated and S9-activated 4-h exposure groups; and 10, 40, and 80 µg/mL for the non-activated 20-h exposure group. […] The induction of structural aberrations was outside the 95% control limit of the historical negative control data of 0.00% to 2.79%. […] However, the induction of structural aberrations was within the 95% control limit of the historical negative control data of 0.00% to 4.28%. […] The induction of structural aberrations was outside the 95% control limit of the historical negative control data of 0.00% to 2.68%.
The induction of numerical aberrations was within the 95% control limit of the historical negative control data.

[2] = 28-day oral toxicity study with 14-day recovery (GLP); format: in vivo, rats; settings: both sexes, Sprague-Dawley, rat, in vivo, oral; once daily for 28 days; read-out: No-adverse effect level (NOAEL)
Excerpt: (§1) We next set out to determine the toxicity and toxicokinetics of SRP-001 when administered via oral gavage once daily to Sprague–Dawley Rats for 28 d (Calvert Labs/Altasciences, Scott Township, PA USA). The study also assessed the reversibility of any toxicity observed with a 14-d recovery period. One hundred thirty-six experimentally naïve Sprague–Dawley rats (68 males and 68 females), 8 weeks old and weighing 167–295 g for males and females at the outset of the study, were assigned to toxicology treatment groups (Groups 1–4) or toxicokinetic groups (Groups 5–7). For toxicology groups, 10 animals/sex/dose were administered 0, 300, 900, or 1500 mg/kg/d SRP-001. An additional 5 animals/sex/dose in Groups 1 and 4 were targeted for a 14-d recovery period and euthanized on day 43. For toxicokinetic groups, 6 animals/sex/dose were administered 300, 900, or 1500 mg/kg/d SRP-001. Mortality/morbidity was performed twice daily and once prior to scheduled sacrifice. Animals in Groups 1–4 were observed prior to each dose administration and 1–3 h post-dose. Animals in Groups 1–4 were also observed once daily on non-dosing days and once prior to scheduled sacrifice. Body weights were recorded prior to randomization/selection, prior to dose administration on day 1, and weekly thereafter. Food consumption was determined weekly for animals in Groups 1–4. Ophthalmology examinations were performed before treatment initiation and during the last week of dosing for animals in Groups 1–4. The functional observational battery was assessed for 5 animals/sex/group in Groups 1–4 once prior to dosing and at 1–2 h following dose administration on day 1. Blood for evaluation of hematology, coagulation, and clinical chemistry and urine for urinalysis was collected from animals in Groups 1–4 on day 29 or day 43. Blood for toxicokinetic evaluation was collected from animals in Groups 5–7 at selected timepoints on days 1 and 28. All surviving animals in Groups 1–4 were sacrificed on day 29 or day 43. Selected tissues were harvested at necropsy, selected organs weighed, and selected tissues evaluated microscopically.
(§2) Following dosing, the reversibility of any toxicity observed was assessed with a 14-d recovery period of animals receiving 0 or 1500 mg/kg of SRP-001. SRP-001-related clinical signs included red staining around the forepaw, forelimbs, mouth, muzzle, and nose and brown-staining in the anogenital area. […] The majority of clinical signs were observed during the first 3 weeks of dosing, and by day 28, the majority of the animals appeared normal. […] These differences remained within or close to the historically normal ranges. Statistically significant differences in total protein, globulin, and mean corpuscular hemoglobin remained present in males after the recovery period, although at a smaller magnitude. SRP-001-related microscopic findings were limited to the liver and included minimal to mild centrilobular hepatocellular hypertrophy in both sexes at ≥ 300 mg/kg/d. This finding correlated with statistically significant increases in liver weights in both sexes.
(§3) Exposure to SRP-001 following oral gavage dosing at 300, 900, and 1500 mg/kg SRP-001 was dose-dependent, increasing with escalating doses following a single dose. […] Based on the parameters observed, the no-adverse effect level (NOAEL) of SRP-001, when administered once daily for 28 d to Sprague–Dawley rats, was 1500 mg/kg.

Sprague Dawley rats = test: as above; format: in vivo
Excerpt: as §1, §2, §3

T1 sequence (Q12809 whole entry): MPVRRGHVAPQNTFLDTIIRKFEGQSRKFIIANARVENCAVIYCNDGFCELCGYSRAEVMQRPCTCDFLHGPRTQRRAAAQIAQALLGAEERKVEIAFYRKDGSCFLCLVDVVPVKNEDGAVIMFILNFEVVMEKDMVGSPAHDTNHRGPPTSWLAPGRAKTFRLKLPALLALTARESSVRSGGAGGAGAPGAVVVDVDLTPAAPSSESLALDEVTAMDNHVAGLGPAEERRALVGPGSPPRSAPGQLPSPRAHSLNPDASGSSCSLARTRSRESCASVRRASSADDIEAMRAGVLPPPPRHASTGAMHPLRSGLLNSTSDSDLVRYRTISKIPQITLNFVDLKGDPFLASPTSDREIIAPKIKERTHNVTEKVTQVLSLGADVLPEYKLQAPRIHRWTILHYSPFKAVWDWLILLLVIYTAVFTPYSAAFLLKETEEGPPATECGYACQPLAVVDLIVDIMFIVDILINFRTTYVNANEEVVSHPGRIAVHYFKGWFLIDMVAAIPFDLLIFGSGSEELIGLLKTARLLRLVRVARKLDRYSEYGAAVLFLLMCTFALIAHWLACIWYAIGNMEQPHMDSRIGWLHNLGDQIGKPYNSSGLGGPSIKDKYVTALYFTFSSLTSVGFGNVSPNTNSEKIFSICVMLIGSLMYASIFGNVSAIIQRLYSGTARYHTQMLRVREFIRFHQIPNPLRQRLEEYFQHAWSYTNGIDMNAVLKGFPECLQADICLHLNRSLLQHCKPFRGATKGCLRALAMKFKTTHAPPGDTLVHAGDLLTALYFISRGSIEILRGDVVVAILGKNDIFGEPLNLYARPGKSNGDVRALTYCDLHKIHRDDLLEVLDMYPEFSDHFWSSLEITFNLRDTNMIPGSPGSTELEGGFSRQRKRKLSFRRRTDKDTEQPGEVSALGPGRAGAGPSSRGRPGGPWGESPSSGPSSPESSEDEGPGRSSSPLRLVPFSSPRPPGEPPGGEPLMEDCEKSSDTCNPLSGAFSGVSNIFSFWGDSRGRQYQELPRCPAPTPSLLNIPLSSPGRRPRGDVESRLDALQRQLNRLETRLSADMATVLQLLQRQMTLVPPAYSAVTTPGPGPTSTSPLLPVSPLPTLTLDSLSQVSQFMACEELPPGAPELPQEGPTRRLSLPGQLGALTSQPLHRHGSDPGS

## CCN(CC)C(=O)c1ccccc1S(=O)(=O)NCC(=O)Nc1ccc(O)cc1 [SRP-001, N,N-diethyl-2-[[2-(4-hydroxyanilino)-2-oxo-ethyl]sulfamoyl]benzamide]
hERG current
  Signal in in vitro hERG assay: absent relevant signal
[1]
  Cytotoxicity (≥ 45% reduction in cell growth index): not observed at any dose
  Induction of numerical chromosomal aberrations: negative
  Induction of structural chromosomal aberrations: positive
[1]; Chinese hamster, 20 h, 80 µg/mL
  Structural aberrations: 3.7%
[1]; chromosome aberration assay, non-activated 4-h exposure
  Dose with cytotoxicity (≥ 45% reduction in cell growth index): 405 µg/mL
[1]; chromosome aberration assay
  Doses with cytotoxicity (≥ 45% reduction in cell growth index): ≥ 70 µg/mL
[1]; preliminary toxicity assay
  Doses with cytotoxicity (≥ 45% reduction in cell growth index): ≥ 122 µg/mL
[2]
  NOAEL at 28 d: 1500 mg/kg
Sprague Dawley rats; 300, 900, 1500 mg/kg, single dose and 28 days
  Exposure versus dose: dose-dependent
Sprague Dawley rats; 300, 900, 1500 mg/kg/d
  Body weight, food consumption, functional observation battery, ophthalmology, coagulation, urinalysis: no SRP-001-related effects
Sprague Dawley rats; 28 days of daily oral doses, rats
  Doses without treatment-related adverse effects: up to 1500 mg/kg/day
Sprague Dawley rats; both sexes, 28 d
  Doses with minimal to mild centrilobular hepatocellular hypertrophy (non-adverse): ≥ 300 mg/kg/day
